The values below are quoted from earlier work in patent US7807830B2, “Manufacture of pure hydralazine salts” (Navinta LLC, priority 2005, dated 2010).

Structures can show the parent of a compound that is named as a salt. Where two headings read alike, the source gives them in different places.

Take `NNc1nncc2ccccc12` [Hydralazine hydrochloride, 1-hydrazinophthalazine]: the onset of action runs as follows: (given intravenously) 10 to 20 min; (oral administration) 10 to 30 min. Moreover, the duration of action (in vivo) was 3 to 4 h. For the setting “in vivo”, the “maximum hypotensive effect in” value is 10 to 80 min.
